Assay results taken from patent US20060252820A1, “Composition for oral administration containing alkylene dioxybenzene derivative” (priority 2003, published 2006).

Assay: Conventional preparation of MKC-242 administered to a human
Type: in vivo
Conditions: conventional preparation (tablet) administered to a human

## Cl.c1ccc2c(c1)OC[C@H](CNCCCOc1ccc3c(c1)OCO3)O2 [MKC-242, 5-[3-[[(2S)-1,4-benzodioxan-2-ylmethyl]amino]propoxy]-1,3-benzodioxole hydrochloride]
Depending on drug concentration in plasma, all slight
  symptoms recognized: nausea, dizziness, orthostatic syncope
plasma, oral, read-out: half-life T1/2
  half-life: 120 to 300 min
